Key:
[1] = biological target: Inosine-5'-monophosphate dehydrogenase 2 (Homo sapiens, UniProt P12268); assay: Inhibition of human IMPDH2
[2] = biological target: Inosine-5'-monophosphate dehydrogenase 1 (Homo sapiens, UniProt P20839); assay: Inhibition of human IMPDH1
[3] = biological target: Inosine-5'-monophosphate dehydrogenase (IMPDH) (Homo sapiens) (UniProt P20839+P12268); assay: Selectivity for IMPDH1 over IMPDH2; format: protein assay
Sequence of Inosine-5'-monophosphate dehydrogenase (IMPDH) (Homo sapiens) (P20839 whole entry, looked up, other chains not shown): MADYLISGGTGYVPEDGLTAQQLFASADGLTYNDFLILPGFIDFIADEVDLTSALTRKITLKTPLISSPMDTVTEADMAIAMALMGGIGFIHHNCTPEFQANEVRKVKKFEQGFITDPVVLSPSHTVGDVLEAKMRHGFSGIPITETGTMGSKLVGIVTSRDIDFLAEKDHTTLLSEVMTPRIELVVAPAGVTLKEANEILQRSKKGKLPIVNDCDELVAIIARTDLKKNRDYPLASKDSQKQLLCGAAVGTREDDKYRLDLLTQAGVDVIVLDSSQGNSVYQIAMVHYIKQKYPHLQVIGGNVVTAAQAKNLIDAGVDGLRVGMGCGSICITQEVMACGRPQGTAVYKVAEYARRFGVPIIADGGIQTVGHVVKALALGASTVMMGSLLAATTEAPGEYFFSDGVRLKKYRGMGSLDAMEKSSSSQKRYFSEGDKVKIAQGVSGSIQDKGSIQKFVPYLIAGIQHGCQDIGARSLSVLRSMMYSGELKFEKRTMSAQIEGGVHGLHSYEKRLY

Sequence of Inosine-5'-monophosphate dehydrogenase 1 (P20839 whole entry): as the sequence (P20839 whole entry, looked up, other chains not shown) above

Row | IC50 [1] [µM] | IC50 [2] [µM] | Selectivity ratio [3] | SMILES
1 | > 1 |  |  | COc1c(C)c2c(c(O)c1C/C=C(\C)CNCP(=O)(O)O)C(=O)OC2
2 | 0.254 |  |  | COc1c(C)c2c(c(O)c1CC=C(C)C)C(=O)OC2
3 | 0.013 | 0.037 | 2.8 | CCc1c(C)c2c(c(O)c1C/C=C(\C)CNCCP(=O)(O)O)C(=O)OC2
4 | > 1 |  |  | COc1c(C)c2c(c(O)c1C/C=C(\C)CN(C)CCP(=O)(O)O)C(=O)OC2
5 | 0.498 |  |  | COc1c(C)c2c(c(O)c1C/C=C(\C)CN(CCP(=O)(O)O)S(C)(=O)=O)C(=O)OC2
6 | 0.096 |  |  | COc1c(C)c2c(c(O)c1C/C=C(\C)CCP(=O)(O)O)C(=O)OC2
7 | 0.023 | 0.038 | 1.7 | CCc1c(C)c2c(c(O)c1C/C=C(\C)COCP(=O)(O)O)C(=O)OC2
8 |  | 0.032 |  | COc1c(C)c2c(c(O)c1C/C=C(\C)CCC(=O)O)C(=O)OC2 [MYCOPHENOLIC ACID]
9 | 0.168 |  |  | COc1c(C)c2c(c(O)c1C/C=C(\C)CP(=O)(O)O)C(=O)OC2
10 | 0.068 |  |  | CCc1c(C)c2c(c(O)c1C/C=C(\C)CN(CCP(=O)(O)O)S(C)(=O)=O)C(=O)OC2
11 | 0.246 |  |  | COc1c(C)c2c(c(O)c1C/C=C(\C)COCP(=O)(O)O)C(=O)OC2
12 | 0.086 |  |  | COc1c(C)c2c(c(O)c1C/C=C(\C)CCCP(=O)(O)O)C(=O)OC2
13 | 0.499 |  |  | COc1c(C)c2c(c(O)c1C/C=C(\C)CNCCP(=O)(O)O)C(=O)OC2
14 | 0.093 |  |  | COc1c(C)c2c(c(O)c1C/C=C(\C)CN(CCP(=O)(O)O)S(N)(=O)=O)C(=O)OC2
15 | 0.132 |  |  | CCc1c(C)c2c(c(O)c1C/C=C(\C)CN(C)CCP(=O)(O)O)C(=O)OC2
16 | 0.785 |  |  | COc1c(C)c2c(c(O)c1C/C=C(\C)CN(CCP(=O)(O)O)C(C)=O)C(=O)OC2
17 | 0.273 |  |  | COC/C(C)=C/Cc1c(O)c2c(c(C)c1OC)COC2=O
18 | 0.02 | 0.071 | 3.6 | CCc1c(C)c2c(c(O)c1C/C=C(\C)CP(=O)(O)O)C(=O)OC2
19 | 0.506 |  |  | COc1c(C)c2c(c(O)c1C/C=C(C)/C=C/P(=O)(O)O)C(=O)OC2
20 | > 1 |  |  | CCOP(=O)(CCNC/C(C)=C/Cc1c(O)c2c(c(C)c1OC)COC2=O)OCC
21 | 0.024 |  |  | CCc1c(C)c2c(c(O)c1C/C=C(\C)CN(CCP(=O)(O)O)S(N)(=O)=O)C(=O)OC2

Row | SMILES | IC50 [1] [µM] | IC50 [2] [µM] | Selectivity ratio [3]
22 | COc1c(C)c2c(c(O)c1C/C=C(\C)CN(C=O)CCP(=O)(O)O)C(=O)OC2 | 0.749 |  | 
23 | COc1c(C)c2c(c(O)c1C/C=C(\C)CP(=O)(OC)OC)C(=O)OC2 | 0.289 |  | 

Reference: ChEMBL document CHEMBL1138100 (Bioorg Med Chem Lett, 2006)
